Test results: US20220142967A1, “Methods and Compositions for the Treatment of Multiple Sclerosis” (SYMBIONYX PHARMACEUTICALS INC, priority 2018, published 2022)
Counter-ions that a name gives are not always drawn.

Key:
[1] = test system: cultured human keratinocytes (KCs); assay: Microarray genome-wide expression, IDMF vs. CTL, MS-associated genes; assay type: cell-based
Experimental: (§1) RNA sample processing and microarray hybridizations were performed using the Affymetrix Human Genome U133 Plus 2.0 array platform. DNA microarray samples evaluated included IDMF- and vehicle-treated KCs (n=2 replicates per group). Samples were normalized using the robust multichip average (RMA) algorithm. Identification of probe sets with detectable expression was performed using the MAS 5.0 method, which identifies probe sets with above-background expression based upon the Wilcoxon signed rank test. To limit redundancy in downstream analyses, a single probe set was chosen to represent each protein-coding human gene featured on the microarray platform. This representative was chosen as the probe set with highest expression for each protein-coding human gene. These probe sets were then additionally filtered to include only those with detectable expression in at least 1 of the 4 samples (P<0.05, Wilcoxon signed rank test). Overall, this yielded a total of 12330 protein-coding genes that were included in analyses, with each gene represented by a single representative probe set. Bayesian linear models and moderated t-statistics were then used to evaluate differential expression for each of the 12330 genes (IDMF vs. CTL treatment; R package: limma). To control the false discovery rate (FDR), raw p-values generated from linear model analyses were adjusted using the Benjamini-Hochberg method.
Genes associated with multiple sclerosis were identified based upon four established database sources: (1) the NHGRI-EBI genome-wide association (GWA) study catalogue, (2) the Disease Ontology (DO) database, (3) the DisGeNET database, and (4) the Medical Subject Heading (MESH) database. While there is some overlap between the various databases, the variation in identified genes from one database to the other reflects the fact that the science is still developing and has uncertainties. Nevertheless, as discussed below, efforts were undertaken to hone in on genes common to multiple databases. […]

[2] = test system: NFE2L2 (NRF2) binding sites; assay: Enrichment of NFE2L2 (NRF2) and other binding sites upstream of IDMF-regulated genes; assay type: cell-based, human
Experimental: as §1
As noted in the background section above, the transcription factor nuclear factor (erythroid-derived 2)-like 2 (NFE2L2/NRF2) has previously been associated with multiple sclerosis. In this study, IDMF-regulated genes were evaluated to determine the extent to which IDMF led to the enrichment of NFE2L2/NRF2 binding sites in promoter-proximal regions. For these analyses, a NFE2L2/NRF2 binding site was obtained from the JASPAR database (JASPAR ID: MA0150). This binding site partially matches the consensus sequence 5-[A/G]TGAC—AGCA-3: additional information can be obtained from http://jaspar.genereg.net/cgi-bin/jaspar_db.pl?ID=MA0150.1&rm=present&collection=CORE. Tests for enrichment were performed by scanning regions 1 kb, 2 kb or 5 kb upstream of protein-coding genes, including either all sequence (conserved=No) or only sequences conserved among mammalian species (conserved=Yes). A positive Z statistic indicates a trend towards increased NFE2L2 (NRF2) binding sites in sequences upstream of IDMF-increased […] (DEGs), as compared to all other expressed genes). P-values indicate the significance of the reported Z statistic (semiparametric generalized additive logistic models). Predicted targets include IDMF-increased DEGs with the NFE2L2 (NRF2) binding site identified within the scanned upstream region.

[3] = test system: human fetal astrocytes derived from cerebral cortex; assay: Comparative RT-PCR evaluation of selected genes in astrocytes; assay type: cell-based
Experimental: Experiments were performed using human fetal astrocytes derived from cerebral cortex (cat. no. 882A-05f; Cell Applications, Sant Diego, Calif.). Cells were grown to subconfluence in human astrocyte growth medium (cat. no. 820-500, Cell Applications). […] Test materials were added to subconfluent cultures at a concentration of 2.5 μM and cells were incubated for 24 hours.
RNA was extracted following the incubation period using the RNAeasy Mini Plus kit (Qiagen, Hilden, Germany) and robotic Qiacube Connect station (Qiagen). Samples were shipped on dry ice to the Thermo Fisher Microarray Research Services Laboratory (Santa Clara, Calif.) for transcriptome analysis. RNA quality analysis was performed upon sample receipt using the NanoDrop Lite (Thermo Fisher Scientific, Waltham, Mass.). All samples had 260/280 nm absorbance ratios higher than 1.90, consistent with high-purity RNA.
The expression of selected genes was further evaluated using RT-PCR. cDNA was prepared using the AzuraQuant cDNA kit (Azura Genomics, Raynham, Mass.) and PCR reactions were performed using the BioRad iCycler iQ Detection System with Fast Green qPCR Master Mix—Fluor (Azura Genomics). PCR primers were purchased from Realtimeprimers (Elkins Park, Pa.). The ΔΔCt method [Livak K. J. and Schmittgen T. D. Analysis of relative gene expression data using real-time quantitative PCR and the 2(−Delta Delta C(T)) Method. Methods (San Diego, Calif.) 25(4):402-408, 2001]. was used to estimate fold changes with cycle threshold values normalized based upon the expression of glyceraldehyde-3-phosphate dehydrogenase (GAPDH).

[4] = genes common to at least two of four databases

- enrichment of NF-kappaB binding sites upstream of IDMF-decreased genes ([2]; FDR<0.10 with FC<0.67, P=1.16E-08): strongly enriched
SMILES: COC(=O)/C=C/C(=O)O[C@H]1CO[C@H]2[C@@H]1OC[C@H]2OC(=O)/C=C/C(=O)OC [IDMF, isosorbide di-(methyl fumarate)]
- average fold-change (IDMF/CTL) of MS-associated genes vs. randomly sampled gene sets ([1]; 76 MS-associated genes from the Disease Ontology (DO) database, P<0.001): significantly lower
- MS-associated genes most strongly decreased [1, 4]: ICAM1, PLAT, and MMP9
- MS-associated genes most strongly increased [1, 4]: POPDC3, MMP3, and DDAH1
- Z Statistic, enrichment of NFE2L2 (NRF2) binding sites upstream of IDMF-increased DEGs ([2]; Region 1 kb, Conserved No): 4.74
- Z Statistic, enrichment of NFE2L2 (NRF2) binding sites upstream of IDMF-increased DEGs ([2]; Region 1 kb, Conserved Yes): 5.91
- Z Statistic, enrichment of NFE2L2 (NRF2) binding sites upstream of IDMF-increased DEGs ([2]; Region 2 kb, Conserved No): 3.37
- Z Statistic, enrichment of NFE2L2 (NRF2) binding sites upstream of IDMF-increased DEGs ([2]; Region 2 kb, Conserved Yes): 3.21
- Z Statistic, enrichment of NFE2L2 (NRF2) binding sites upstream of IDMF-increased DEGs ([2]; Region 5 kb, Conserved No): 2.11
- Z Statistic, enrichment of NFE2L2 (NRF2) binding sites upstream of IDMF-increased DEGs ([2]; Region 5 kb, Conserved Yes): 1.05
- OSGIN1 expression ([3]; FIG. 11(B)): enhancing expression
- expression of key MS-associated genes (IL-6, ICAM1, MALT1, TNFAIP3, IRF1, CXCL8) ([3]; FIGS. 11(C) through 11(H)): marked suppression
